Assays:
Type in all cases: in vivo
[1] = system: galium (catchweed bedstraw, Galium aparine); assay: Test A postemergence, galium; conditions: 0 to 100 scale (0 no effect, 100 complete control)
Summary of the method: (§1)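 Greenhouse test: compounds in solvent with surfactant sprayed onto loam–sand soil after planting (preemergence) or onto plants 2-10 cm at the one- to two-leaf stage (postemergence). Injury visually rated versus untreated controls after about 10 days on a 0-100 scale (100 = complete control).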

[2] = system: ryegrass, Italian (Lolium multiflorum); assay: Test A preemergence, Italian ryegrass; conditions: 0 to 100 scale (0 no effect, 100 complete control)
Summary of the method: as §1

[3] = system: blackgrass (Alopecurus myosuroides); assay: Test A postemergence, blackgrass; conditions: 0 to 100 scale (0 no effect, 100 complete control)
Summary of the method: as §1

[4] = system: foxtail, giant (Setaria faberii); assay: Test A preemergence, giant foxtail; conditions: 0 to 100 scale (0 no effect, 100 complete control)
Summary of the method: as §1

[5] = system: ragweed (common ragweed, Ambrosia elatior); assay: Test A postemergence, ragweed; conditions: 0 to 100 scale (0 no effect, 100 complete control)
Summary of the method: as §1

corn (Zea mays) = assay: Test A postemergence, corn; conditions: 0 to 100 scale (0 no effect, 100 complete control)
Summary of the method: as §1

kochia (Kochia scoparia) [6] = assay: Test A preemergence, kochia; conditions: 0 to 100 scale (0 no effect, 100 complete control)
Summary of the method: as §1

[7] = system: foxtail, giant (Setaria faberii); assay: Test A postemergence, giant foxtail; conditions: 0 to 100 scale (0 no effect, 100 complete control)
Summary of the method: as §1

[8] = system: sedge, umbrella (small-flower umbrella sedge, Cyperus difformis); assay: Test B flooded paddy test, umbrella sedge; conditions: 250 g ai/ha, applied to paddy water, visual rating after 13 to 15 days, scale 0 (no effect) to 100 (complete control)
Text: (§2) At time of treatment, test pots were flooded to 3 cm above the soil surface, treated by application of test compounds directly to the paddy water, and then maintained at that water depth for the duration of the test. Treated plants and controls were maintained in a greenhouse for 13 to 15 days, after which time all species were compared to controls and visually evaluated. […] A dash (-) response means no test result.

[9] = system: barnyardgrass (Echinochloa crus-galli); assay: Test A postemergence, barnyardgrass; conditions: 0 to 100 scale (0 no effect, 100 complete control)
Summary of the method: as §1

rice (Oryza sativa) = assay: Test B flooded paddy test, rice; conditions: 250 g ai/ha, applied to paddy water, visual rating after 13 to 15 days, scale 0 (no effect) to 100 (complete control)
Text: as §2

[10] = system: wheat (Triticum aestivum); assay: Test A postemergence, wheat; conditions: 0 to 100 scale (0 no effect, 100 complete control)
Summary of the method: as §1

[11] = system: pigweed (Amaranthus retroflexus); assay: Test A postemergence, pigweed; conditions: 0 to 100 scale (0 no effect, 100 complete control)
Summary of the method: as §1

[12] = system: barnyardgrass (Echinochloa crus-galli); assay: Test A preemergence, barnyardgrass; conditions: 0 to 100 scale (0 no effect, 100 complete control)
Summary of the method: as §1

kochia (Kochia scoparia) [13] = assay: Test A postemergence, kochia; conditions: 0 to 100 scale (0 no effect, 100 complete control)
Summary of the method: as §1

[14] = system: ducksalad (Heteranthera limosa); assay: Test B flooded paddy test, ducksalad; conditions: 250 g ai/ha, applied to paddy water, visual rating after 13 to 15 days, scale 0 (no effect) to 100 (complete control)
Text: as §2

[15] = system: pigweed (Amaranthus retroflexus); assay: Test A preemergence, pigweed; conditions: 0 to 100 scale (0 no effect, 100 complete control)
Summary of the method: as §1

[16] = system: ryegrass, Italian (Lolium multiflorum); assay: Test A postemergence, Italian ryegrass; conditions: 0 to 100 scale (0 no effect, 100 complete control)
Summary of the method: as §1

[17] = system: barnyardgrass (Echinochloa crus-galli); assay: Test B flooded paddy test, barnyardgrass; conditions: 250 g ai/ha, applied to paddy water, visual rating after 13 to 15 days, scale 0 (no effect) to 100 (complete control)
Text: as §2

[18] = system: ragweed (common ragweed, Ambrosia elatior); assay: Test A preemergence, ragweed; conditions: 0 to 100 scale (0 no effect, 100 complete control)
Summary of the method: as §1

[19] = 125 g ai/ha, visual injury, approximately 10 days
[20] = 500 g ai/ha, visual injury, approximately 10 days

Row | SMILES | Plant response rating, Galium [1, 19] | Plant response rating, Ryegrass, Italian ([2]; 125 g ai/ha) | Plant response rating, Blackgrass [3, 19] | Plant response rating, Foxtail, Giant ([4]; 125 g ai/ha) | Plant response rating, Ragweed [5, 19] | Plant response rating, Corn (corn (Zea mays); [19]) | Plant response rating, Kochia (kochia (Kochia scoparia) [6]; 125 g ai/ha) | Plant response rating, Foxtail, Giant [7, 19] | Plant response rating, Sedge, Umbrella (Flood) [8] | Plant response rating, Barnyardgrass [9, 19] | Plant response rating, Rice (Flood) (rice (Oryza sativa)) | Plant response rating, Wheat [10, 19] | Plant response rating, Pigweed [11, 19] | Plant response rating, Barnyardgrass ([12]; 125 g ai/ha) | Plant response rating, Kochia (kochia (Kochia scoparia) [13]; [19]) | Plant response rating, Ducksalad (Flood) [14] | Plant response rating, Pigweed ([15]; 125 g ai/ha) | Plant response rating, Ryegrass, Italian [16, 19] | Plant response rating, Barnyardgrass (Flood) [17] | Plant response rating, Ragweed ([18]; 125 g ai/ha) | further results
1 | O=C1NCC(c2cccc(OCC3CC3)c2)C1C(=O)Nc1ccccc1F (stereo not drawn) [Compound 11] | 0 | 0 | 0 | 80 | 30 | 0 | 0 | 50 | 0 | 50 | 0 | 0 | 0 | 60 | 0 | 0 | 0 | 0 | 0 | 0 | Plant response rating, Galium [1, 20]: 30; Plant response rating, Ryegrass, Italian ([2]; 500 g ai/ha): 20; Plant response rating, Blackgrass [3, 20]: 40; Plant response rating, Foxtail, Giant ([4]; 500 g ai/ha): 90; Plant response rating, Ragweed [5, 20]: 40; Plant response rating, Corn (corn (Zea mays); [20]): 20; Plant response rating, Kochia (kochia (Kochia scoparia) [6]; 500 g ai/ha): 40; Plant response rating, Foxtail, Giant [7, 20]: 90; Plant response rating, Barnyardgrass [9, 20]: 90; Plant response rating, Wheat [10, 20]: 20; Plant response rating, Pigweed [11, 20]: 20; Plant response rating, Barnyardgrass ([12]; 500 g ai/ha): 90; Plant response rating, Kochia (kochia (Kochia scoparia) [13]; [20]): 0; Plant response rating, Pigweed ([15]; 500 g ai/ha): 30; Plant response rating, Ryegrass, Italian [16, 20]: 20; Plant response rating, Ragweed ([18]; 500 g ai/ha): 0
2 | CN1CC(c2cccc(Oc3ccc(F)cn3)c2)C(C(=O)Nc2cccc(C#N)c2F)C1=O (single isomer, unassigned) [Compound 88] | 40 | 20 | 0 | 90 | 0 | 20 | 30 | 70 | 0 | 80 | 0 | 60 | 20 | 30 | 30 | 50 | 20 | 0 | 0 | 0 | Plant response rating, Galium ([1]; 31 g ai/ha): 30; Plant response rating, Ryegrass, Italian ([2]; 31 g ai/ha): 0; Plant response rating, Blackgrass ([3]; 31 g ai/ha): 0; Plant response rating, Foxtail, Giant ([4]; 31 g ai/ha): 30; Plant response rating, Ragweed ([5]; 31 g ai/ha): 0; Plant response rating, Corn (corn (Zea mays); 31 g ai/ha): 0; Plant response rating, Kochia (kochia (Kochia scoparia) [6]; 31 g ai/ha): 0; Plant response rating, Foxtail, Giant ([7]; 31 g ai/ha): 30; Plant response rating, Barnyardgrass ([9]; 31 g ai/ha): 30; Plant response rating, Wheat ([10]; 31 g ai/ha): 0; Plant response rating, Pigweed ([11]; 31 g ai/ha): 0; Plant response rating, Barnyardgrass ([12]; 31 g ai/ha): 0; Plant response rating, Kochia (kochia (Kochia scoparia) [13]; 31 g ai/ha): 0; Plant response rating, Pigweed ([15]; 31 g ai/ha): 0; Plant response rating, Ryegrass, Italian ([16]; 31 g ai/ha): 0; Plant response rating, Ragweed ([18]; 31 g ai/ha): 0
